# Results reported in patent US10131652B2, “Pyrimidinyloxy benzene derivatives as herbicides” (E. I. DU PONT DE NEMOURS AND COMPANY, priority 2014, dated 2018).
# Tests used:
# Assay type in all cases: in vivo
# [1] = test system: ragweed (common ragweed, Ambrosia elatior); assay: Test B pre-/postemergence plant response; conditions: for Ragweed plant response rating: 0 to 100 scale (0 no effect, 100 complete control)
# Text: (§1) Seeds of plant species selected from bamyardgrass (Echinochloa crus-galli), kochia (Kochia scoparia), ragweed (common ragweed, Ambrosia elatior), Italian ryegrass (Lolium multiflorum), large (Lg) crabgrass (Digitaria sanguinalis), giant foxtail (Setaria faberii), momingglory (Ipomoea spp.), pigweed (Amaranthus retroflexus), velvetleaf (Abutilon theophrasti), wheat (Triticum aestivum), and corn (Zea mays) were planted into a blend of loam soil and sand and treated preemergence with a directed soil spray using test chemicals formulated in a non-phytotoxic solvent mixture which included a surfactant. At the same time, plants selected from these crop and weed species and also blackgrass (Alopecurus myosuroides), and galium (catchweed bedstraw, Galium aparine) were planted in pots containing the same blend of loam soil and sand and treated with postemergence applications of test chemicals formulated in the same manner. Plants ranged in height from 2 to 10 cm and were in the one- to two-leaf stage for the postemergence treatment. Treated plants and untreated controls were maintained in a greenhouse for approximately 10 days, after which time all treated plants were compared to untreated controls and visually evaluated for injury. Plant response ratings, summarized in Table B, are based on a 0 to 100 scale where 0 is no effect and 100 is complete control. A dash (-) response means no test result.
# [2] = test system: giant foxtail (Setaria faberii); assay: Test B pre-/postemergence plant response; conditions: for Foxtail, Giant plant response rating: 0 to 100 scale (0 no effect, 100 complete control)
# Text: as §1
# [3] = test system: kochia (Kochia scoparia); assay: Test B pre-/postemergence plant response; conditions: for Kochia plant response rating: 0 to 100 scale (0 no effect, 100 complete control)
# Text: as §1
# [4] = test system: barnyardgrass (Echinochloa crus-galli); assay: Test B pre-/postemergence plant response; conditions: for Barnyardgrass plant response rating: 0 to 100 scale (0 no effect, 100 complete control)
# Text: as §1
# [5] = test system: pigweed (Amaranthus retroflexus); assay: Test B pre-/postemergence plant response; conditions: for Pigweed plant response rating: 0 to 100 scale (0 no effect, 100 complete control)
# Text: as §1
# [6] = test system: corn (Zea mays); assay: Test B pre-/postemergence plant response; conditions: 0 to 100 scale, 0 no effect, 100 complete control
# Text: as §1
# [7] = test system: wheat (Triticum aestivum); assay: Test B pre-/postemergence plant response; conditions: 0 to 100 scale, 0 no effect, 100 complete control
# Text: as §1
# [8] = test system: Italian ryegrass (Lolium multiflorum); assay: Test B pre-/postemergence plant response; conditions: for Ryegrass, Italian plant response rating: 0 to 100 scale (0 no effect, 100 complete control)
# Text: as §1
# [9] = test system: ducksalad (Heteranthera limosa); assay: Test C flooded paddy test plant response; conditions: Flood, 250 g ai/ha; scale of 0 to 100 where 0 is no effect and 100 is complete control; 13 to 15 days
# Experimental: (§2) Plant species in the flooded paddy test selected from rice (Oryza sativa), small-flower umbrella sedge (Cyperus difformis), ducksalad (Heteranthera limosa), and bamyardgrass (Echinochloa crus-galli) were grown to the 2-leaf stage for testing. At time of treatment, test pots were flooded to 3 cm above the soil surface, treated by application of test compounds directly to the paddy water, and then maintained at that water depth for the duration of the test. Treated plants and controls were maintained in a greenhouse for 13 to 15 days, after which time all species were compared to controls and visually evaluated. Plant response ratings, summarized in Table C, are based on a scale of 0 to 100 where 0 is no effect and 100 is complete control. A dash (-) response means no test result.
# [10] = test system: rice (Oryza sativa); assay: Test C flooded paddy test plant response; conditions: Flood, 250 g ai/ha; scale of 0 to 100 where 0 is no effect and 100 is complete control; 13 to 15 days
# Experimental: as §2
# [11] = test system: barnyardgrass (Echinochloa crus-galli); assay: Test C flooded paddy test plant response; conditions: Flood, 250 g ai/ha; scale of 0 to 100 where 0 is no effect and 100 is complete control; 13 to 15 days
# Experimental: as §2
# [12] = test system: small-flower umbrella sedge (Cyperus difformis); assay: Test C flooded paddy test plant response; conditions: Flood, 250 g ai/ha; scale of 0 to 100 where 0 is no effect and 100 is complete control; 13 to 15 days
# Experimental: as §2
# [13] = test system: blackgrass (Alopecurus myosuroides); assay: Test B postemergence plant response; conditions: 0 to 100 scale, 0 no effect, 100 complete control
# How it was run: (§3)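 Plants grown in pots of loam soil–sand blend were sprayed postemergence with formulated test chemicals at 2 to 10 cm height, one- to two-leaf stage. After about 10 days in a greenhouse, injury was visually rated against untreated controls on a 0 to 100 scale (0 no effect, 100 complete control).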
# [14] = test system: galium (catchweed bedstraw, Galium aparine); assay: Test B postemergence plant response; conditions: 0 to 100 scale, 0 no effect, 100 complete control
# How it was run: as §3
# [15] = 31 g ai/ha, Postemergence, 0 to 100 scale, 0 no effect, 100 complete control
# [16] = 125 g ai/ha, postemergence, 0 to 100 scale, 0 no effect, 100 complete control
# [17] = Preemergence, 125 g ai/ha, 0 to 100 scale where 0 is no effect and 100 is complete control
SMILES,"Plant response rating, Ragweed [1, 15]","Plant response rating, Ragweed [1, 16]","Ragweed plant response rating ([1]; Preemergence, 31 g ai/ha)","Plant response rating, Ragweed [1, 17]","Plant response rating, Foxtail, Giant [2, 15]","Plant response rating, Foxtail, Giant [2, 16]","Foxtail, Giant plant response rating ([2]; Preemergence, 31 g ai/ha)","Plant response rating, Foxtail, Giant [2, 17]","Plant response rating, Kochia [3, 15]","Plant response rating, Kochia [3, 16]","Kochia plant response rating ([3]; Preemergence, 31 g ai/ha)","Plant response rating, Kochia [3, 17]","Plant response rating, Barnyardgrass [4, 15]","Plant response rating, Barnyardgrass [4, 16]","Barnyardgrass plant response rating ([4]; Preemergence, 31 g ai/ha)","Plant response rating, Barnyardgrass [4, 17]","Plant response rating, Pigweed [5, 15]","Plant response rating, Pigweed [5, 16]","Pigweed plant response rating ([5]; Preemergence, 31 g ai/ha)","Plant response rating, Pigweed [5, 17]",also measured
CC(C)n1nc(C(F)(F)F)cc1-c1c(C#N)cccc1Oc1ncc(Cl)cn1 [Compound 90],0,0,0,0,0,0,0,0,0,10,0,0,0,0,0,0,0,10,0,20,"Plant response rating, Corn ([6]; 31 g ai/ha, Postemergence): 0; Plant response rating, Corn ([6]; 125 g ai/ha, postemergence): 0; Plant response rating, Wheat ([7]; 31 g ai/ha, Postemergence): 0; Plant response rating, Wheat ([7]; 125 g ai/ha, postemergence): 0; Plant response rating, Ryegrass, Italian [8, 15]: 0; Plant response rating, Ryegrass, Italian [8, 16]: 0; Ryegrass, Italian plant response rating ([8]; Preemergence, 31 g ai/ha): 0; Plant response rating, Ryegrass, Italian [8, 17]: 0; Ducksalad plant response rating [9]: 0; Rice plant response rating [10]: 0; Barnyardgrass plant response rating [11]: 0; Sedge, Umbrella plant response rating [12]: 0; Plant response rating, Blackgrass ([13]; 31 g ai/ha, Postemergence): 0; Plant response rating, Blackgrass ([13]; 125 g ai/ha, postemergence): 0; Plant response rating, Galium ([14]; 31 g ai/ha, Postemergence): 0; Plant response rating, Galium ([14]; 125 g ai/ha, postemergence): 30"
Clc1cnc(Oc2ccccc2-c2cc(C(Cl)Cl)on2)nc1 [Compound 97],20,50,0,0,0,30,10,30,60,90,0,30,0,20,0,0,60,90,20,50,"Plant response rating, Corn ([6]; 31 g ai/ha, Postemergence): 0; Plant response rating, Corn ([6]; 125 g ai/ha, postemergence): 20; Plant response rating, Wheat ([7]; 31 g ai/ha, Postemergence): 0; Plant response rating, Wheat ([7]; 125 g ai/ha, postemergence): 0; Plant response rating, Ryegrass, Italian [8, 15]: 0; Plant response rating, Ryegrass, Italian [8, 16]: 0; Ryegrass, Italian plant response rating ([8]; Preemergence, 31 g ai/ha): 0; Plant response rating, Ryegrass, Italian [8, 17]: 0; Ducksalad plant response rating [9]: 0; Rice plant response rating [10]: 0; Barnyardgrass plant response rating [11]: 0; Sedge, Umbrella plant response rating [12]: 50; Plant response rating, Blackgrass ([13]; 31 g ai/ha, Postemergence): 0; Plant response rating, Blackgrass ([13]; 125 g ai/ha, postemergence): 0; Plant response rating, Galium ([14]; 31 g ai/ha, Postemergence): 10; Plant response rating, Galium ([14]; 125 g ai/ha, postemergence): 50"
COc1cccc(Oc2ncc(Cl)cn2)c1-c1cc(C(F)F)no1 [Compound 103],20,60,0,10,40,70,50,90,0,30,0,10,0,40,0,50,30,80,100,100,"Plant response rating, Corn ([6]; 31 g ai/ha, Postemergence): 0; Plant response rating, Corn ([6]; 125 g ai/ha, postemergence): 30; Plant response rating, Wheat ([7]; 31 g ai/ha, Postemergence): 0; Plant response rating, Wheat ([7]; 125 g ai/ha, postemergence): 0; Plant response rating, Ryegrass, Italian [8, 15]: 0; Plant response rating, Ryegrass, Italian [8, 16]: 10; Ryegrass, Italian plant response rating ([8]; Preemergence, 31 g ai/ha): 0; Plant response rating, Ryegrass, Italian [8, 17]: 0; Ducksalad plant response rating [9]: 40; Rice plant response rating [10]: 30; Barnyardgrass plant response rating [11]: 60; Sedge, Umbrella plant response rating [12]: 80; Plant response rating, Blackgrass ([13]; 31 g ai/ha, Postemergence): 30; Plant response rating, Blackgrass ([13]; 125 g ai/ha, postemergence): 90; Plant response rating, Galium ([14]; 31 g ai/ha, Postemergence): 90; Plant response rating, Galium ([14]; 125 g ai/ha, postemergence): 100"
COc1cccc(Oc2ncc(Cl)cn2)c1-c1cc(C(F)(F)F)on1 [Compound 105],10,30,0,0,40,80,70,100,30,70,0,10,10,70,20,90,90,100,100,100,"Plant response rating, Corn ([6]; 31 g ai/ha, Postemergence): 10; Plant response rating, Corn ([6]; 125 g ai/ha, postemergence): 20; Plant response rating, Wheat ([7]; 31 g ai/ha, Postemergence): 0; Plant response rating, Wheat ([7]; 125 g ai/ha, postemergence): 10; Plant response rating, Ryegrass, Italian [8, 15]: 0; Plant response rating, Ryegrass, Italian [8, 16]: 10; Ryegrass, Italian plant response rating ([8]; Preemergence, 31 g ai/ha): 0; Plant response rating, Ryegrass, Italian [8, 17]: 20; Ducksalad plant response rating [9]: 40; Rice plant response rating [10]: 35; Barnyardgrass plant response rating [11]: 45; Sedge, Umbrella plant response rating [12]: 70; Plant response rating, Blackgrass ([13]; 31 g ai/ha, Postemergence): 70; Plant response rating, Blackgrass ([13]; 125 g ai/ha, postemergence): 100; Plant response rating, Galium ([14]; 31 g ai/ha, Postemergence): 70; Plant response rating, Galium ([14]; 125 g ai/ha, postemergence): 100"
Cc1nnc(-c2ccccc2Oc2ncc(Cl)cn2)o1 [Compound 106],0,0,0,0,0,0,0,0,0,0,0,0,0,0,0,0,0,0,0,0,"Plant response rating, Corn ([6]; 31 g ai/ha, Postemergence): 0; Plant response rating, Corn ([6]; 125 g ai/ha, postemergence): 0; Plant response rating, Wheat ([7]; 31 g ai/ha, Postemergence): 0; Plant response rating, Wheat ([7]; 125 g ai/ha, postemergence): 0; Plant response rating, Ryegrass, Italian [8, 15]: 0; Plant response rating, Ryegrass, Italian [8, 16]: 0; Ryegrass, Italian plant response rating ([8]; Preemergence, 31 g ai/ha): 0; Plant response rating, Ryegrass, Italian [8, 17]: 0; Ducksalad plant response rating [9]: 0; Rice plant response rating [10]: 0; Barnyardgrass plant response rating [11]: 0; Sedge, Umbrella plant response rating [12]: 0; Plant response rating, Blackgrass ([13]; 31 g ai/ha, Postemergence): 0; Plant response rating, Blackgrass ([13]; 125 g ai/ha, postemergence): 0; Plant response rating, Galium ([14]; 31 g ai/ha, Postemergence): 0; Plant response rating, Galium ([14]; 125 g ai/ha, postemergence): 0"
